Source: patent US7307171B2, “Materials and methods for inhibiting fouling of surfaces exposed to aquatic environments” (priority 2003, dated 2007)
Read-outs that look alike come from different tables or passages of the source.

Columns and labels:
[1] = Barnacle naupliar larval 24 hour toxicity (mortality) assay; assay type: in vivo, Balanus amphitrite; conditions: Balanus amphitrite, in vivo, other: larvae exposed in sea water solution of the compound; second naupliar stage, 24 hr mortality; interval in parentheses; read-out: Barnacle Larvae Lethal Median Conc. LC50
Source text: (§1) While the cypris larval stage was used in settlement tests, the second naupliar larval stage was used in toxicity tests. Great care was taken to ensure that the free bases completely dissolved in aged sea water solutions previously filtered to remove particles >than 100 kDa. This was accomplished by diluting (by immediate and thorough vortexing) a 3×10^−2 Molar solution of the free base in methanol at least 1,000-fold into the filtered sea water. Diluted aqueous solutions of the compounds were not refrigerated and were used within an hour of preparation.
(§2) All six possible unsubstituted bipyridyls were also tested.

[2] = system: crayfish Procambarus clarkii; conditions: cited from earlier work; for Crayfish Paralysis PD50: Table 2 footnote 1: published previously (Kem, Soti 2001)
[3] = system: barnacle (Balanus amphitrite) cyprid larvae; experiment: Barnacle cyprid larval 24 hour settlement inhibition assay; assay type: in vivo; conditions: for IC50: cyprid larvae, 24 hr exposure, probit analysis, interval in parentheses; for anti-settlement activity (in words): barnacle larval settlement; for Inhibition Pot/Paralytic Pot: ratio of relative settlement inhibition potency to relative crayfish paralytic potency; for Barnacle Larvae Settlement Rel. Pot: relative to 2,3′-BP = 100; for Barnacle Larvae Settlement % Inhib: single concentration, three separate experiments, spread in parentheses
Source text: as §1

[4] = system: crayfish Procambarus clarkii; conditions: for crayfish paralytic activity (in words): crayfish paralysis assay; for fold less toxic/paralytic than 2,3′-BP in crayfish: injected into crayfish, compared with 2,3′-BP; for Crayfish Paralysis Rel. Pot: relative to 2,3′-BP = 100; for Crayfish Acute Paralytic Dose PD50: Table 1, no footnote, P. clarkii, injected into haemocoele, paralysis at 15 min; for Crayfish Paralysis PD50: Table 2, no footnote, paralysis 15 min after injection
Protocol: Each alkaloid, dissolved in 0.9% sodium chloride containing 10 mM Tris buffer (pH 7.4), was injected into the haemocoele which surrounds the heart. Dose per unit weight was kept constant by injecting a variable volume, 0.10 ml per 10 g fresh weight. Paralysis was measured 15 minutes after injection by measuring the animal's ability, after being placed on its back, to right itself within a 2-minute period. Although the convulsive paralytic effect of the bipyridyls reached a peak about 2-minutes after injection, paralysis could be more conveniently measured 15 minutes after injection. Generally, the same number (10-20) of crayfish were injected at each dose, and the dose interval was kept constant. Before the assay, crayfish were tested to ascertain that they could right themselves within a one minute period.
Animals initially develop tremors, then flex their legs, repeatedly flip their tails, then fall on their side in a tonic convulsion within 2-5 minutes after injection. Recovery is appreciable within 15 minutes, the time selected as most convenient for evaluating groups of 5 animals rapidly injected one after another.

[5] = system: barnacle second naupliar larval stage; experiment: Barnacle naupliar larval 24 hour toxicity (mortality) assay; assay type: in vivo, Balanus amphitrite; conditions: 24 hr mortality, interval in parentheses, read-out: Barnacle Larvae Lethal Median Conc. LC50
Source text: as §1, §2

[6] = Table 1 footnote 2: published previously, P. clarkii from Louisiana (Kem, Soti 2001)
[7] = Table 1 footnote 1: published previously, P. clarkii from California (Kem 1976)

Row | Molecule | LC50 at 24 h [1] [µM] | IC50 ([3]; Amphibalanus amphitrite) [µM] | anti-settlement activity (in words) [3] | Inhibition Pot/Paralytic Pot [3] | Barnacle Larvae Settlement Rel. Pot [3] | Barnacle Larvae Settlement % Inhib [3] | Crayfish Paralysis Rel. Pot [4] | other results
1 | c1cnc2c(c1)ccc1ncccc12 [1,7-phenanthroline, reference compound] | > 50 | > 50 | inactive at a 10-fold higher concentration |  |  |  |  | Crayfish Acute Paralytic Dose PD50 [2, 6]: >30^2 μg; crayfish paralytic activity (in words) [4]: low activity
2 | Cc1ccncc1-c1ccccn1 [4′-Me2,3′-BP, 4′-Methyl-2,3′-bipyridyl] |  |  |  | 56 | 167 | 90 (10) % | 3 | Crayfish Paralysis PD50 [2]: 69^1 μg; fold less toxic/paralytic than 2,3′-BP in crayfish [4]: 33 fold; crayfish paralytic activity as % of 2,3′-BP ([4]; relative to 2,3′-BP): 3%
3 | nemertelline |  |  |  |  |  |  |  | IC50 [3]: 3.2 µM; Crayfish Acute Paralytic Dose PD50 [4]: >120 µg
4 | (S)-anabaseine |  |  | inhibited settlement |  |  |  |  | 
5 | Cc1cccc(-c2cccnc2)n1 [6-Me2,3′-BP, 6-methyl-2,3′-bipyridyl] |  |  |  | 0.27 | 30 | 16 (16) % | 112 | Crayfish Paralysis PD50 [4]: 1.6 µg
6 | Cc1ncccc1-c1ccccn1 [2′-Me2,3′-BP, 2′-Me2,3′-bipyridyl] |  |  |  | <0.05 | 0 | 0 (33) % | 1 | Crayfish Paralysis PD50 [2]: 210^1 μg
7 | c1cc(-c2ccncc2)ccn1 [4,4′-BP, 4,4′-bipyridyl] |  | > 100 |  |  |  |  |  | 
8 | Cc1cccnc1-c1cccnc1 [3-Me2,3′-BP, 3-Methyl-2,3′-bipyridyl] |  |  |  | 2.1 | 63 | 34 (13) % | 30 | Crayfish Paralysis PD50 [2]: 59^1 μg
9 | Clc1cccnc1-c1cccnc1 [3-Chloro-2,3′-BP, reference compound] |  |  | inability of the 3-chloro-2,3′-BP to inhibit settlement at 100 μM |  |  |  |  | LC50 [5]: > 50 µM; IC50 [3]: > 100 µM
10 | Cc1cncc(-c2ccccn2)c1 [5′-Me2,3′-BP, 5′-Methyl-2,3′-bipyridyl] |  |  |  | 1.8 | 100 | 54 (28) % | 55 | Crayfish Paralysis PD50 [4]: 3.3 µg
11 | c1cncc(-c2ccnc(-c3cccnc3)c2)c1 [Nicotelline] |  |  | displayed an activity similar to nemertelline |  |  |  |  | 
12 | c1cncc([C@@H]2CCCCN2)c1 [Anabasine] |  | 3 |  |  |  |  |  | Crayfish Acute Paralytic Dose PD50 [4]: 3.9 µg
13 | 2-(thienyl)-pyridine [reference compound] |  |  | inactivity |  |  |  |  | LC50 [5]: > 100 µM; Crayfish Acute Paralytic Dose PD50 [2, 6]: 650^2 μg; IC50 [3]: > 100 µM
14 | c1cnc(-c2cccnc2)nc1 [2-(3-pyridyl)-pyrimidine] | > 50 | > 50 |  |  |  |  |  | Crayfish Acute Paralytic Dose PD50 [2, 6]: 2.6^2 μg
15 | c1cnc2c(c1)ccc1ccncc12 [1,9-phenanthroline] | > 50 | 2 | almost as active as 2,3′-BP |  |  |  |  | Crayfish Acute Paralytic Dose PD50 [2, 6]: 3.0^2 μg
16 | c1cncc(-c2ccncc2)c1 [3,4′-BP, 3,4′-bipyidyl] |  |  |  |  |  |  |  | LC50 [5]: > 20 µM; IC50 [3]: > 100 µM; Crayfish Acute Paralytic Dose PD50 [4]: 61 µg
17 | c1ccc(-c2ccncc2)nc1 [2,4′-BP, 2,4′-bipyridyl] | > 50 | > 100 |  |  |  |  |  | Crayfish Acute Paralytic Dose PD50 [4]: >20 µg
18 | c1cncc(C2=NCCCC2)c1 [Anabaseine, anabaseine] | 2 | 1.2 |  |  |  |  |  | Crayfish Acute Paralytic Dose PD50 [2, 7]: 3.6^1 μg; crayfish paralytic activity (in words) [4]: slightly less paralytic than 2,3′-BP; fold less toxic/paralytic than 2,3′-BP in crayfish [4]: approximately 4 fold
19 | c1ccc(-c2cccnc2)nc1 [2,3′-BP, 2,3′-Bipyridyl] | 1.9 | 4.1 |  | 1.0 | 100 | 54 (11) % | 100 | Crayfish Acute Paralytic Dose PD50 [2, 7]: 0.88^1 μg; Crayfish Acute Paralytic Dose PD50 [2, 6]: 1.8^2 μg; pKa (physchem): 4.4; Crayfish Paralysis PD50 [4]: 1.8 µg
20 | 1-methyl-2,3′-BP [1-Methyl-2,3′BP, reference compound] |  |  | low anti-settlement activity |  |  |  |  | LC50 [5]: > 100 µM; Crayfish Acute Paralytic Dose PD50 [2, 6]: >800^2 μg; IC50 [3]: > 100 µM; crayfish paralytic activity (in words) [4]: very low paralytic activity
21 | c1cncc(C2=NCCCN2)c1 [PTHP, 2-(3-pyridyl)-3,4,5,6-tetrahydropyrimidine, reference compound] | > 100 | > 100 | relative inactivity |  |  |  |  | Crayfish Acute Paralytic Dose PD50 [2, 6]: 81^2 μg; crayfish paralytic activity (in words) [4]: very low paralytic activity
22 | c1ccc(-c2ccccn2)nc1 [2,2′-BP, 2,2′-bipyridyl] | 4.4 | 7 |  |  |  |  |  | Crayfish Acute Paralytic Dose PD50 [4]: >100 µg; fold less toxic/paralytic than 2,3′-BP in crayfish [4]: at least 50 fold
23 | c1cncc(-c2cccnc2)c1 [3,3′-BP, 3,3′-bipyridyl] | 10 | > 100 |  |  |  |  |  | Crayfish Acute Paralytic Dose PD50 [4]: 17 µg
24 | Cc1ccnc(-c2cccnc2)c1 [4-Me2,3′-BP, 4-Me2,3′-bipyridyl] |  |  |  | 3.1 | 154 | 83 (4) % | 50 | Crayfish Paralysis PD50 [4]: 3.6 µg
25 | Cc1ccc(-c2ccccn2)cn1 [6′-Me2,3′-BP, 6′-Methyl-2,3′-bipyridyl] |  |  |  | 3.7 | 56 | 30 (16) % | 15 | Crayfish Paralysis PD50 [4]: 12 µg
26 | Cc1ccc(-c2cccnc2)nc1 [5-Me2,3′-BP, 5-methyl-2,3′-bipyridyl] |  |  |  | 0.96 | 176 | 95 (5) % | 184 | Crayfish Paralysis PD50 [4]: 0.98 µg
